Test results published in EP2435019B1, “DODECA-2E,4E-DIENE AMIDES AND THEIR USE AS MEDICAMENTS AND COSMETICS” (Dr. August Wolff GmbH & Co. KG Arzneimittel, priority 2009, dated 2010).
Read-outs that look alike come from different tables or passages of the source.

How the values were obtained:
FAAH [1] = settings: cited from earlier work
[2] = tested on: Arachidonoylethanolamide Transport (AEAT); experiment: Cellular uptake of [3H]-AEA in U937 cells (assay C); format: cell-based; settings: Homo sapiens, U-937; [3H]-AEA uptake, assay C (Tables 2 and 3)
[3] = at 50 µM; Chen 2005; cited from earlier work
[4] = tested on: RAW264.7 mouse macrophage cells; settings: at 50 µM; LaLone 2007; cited from earlier work
CB2 [5] = biological target: T1, CB2 (Homo sapiens, UniProt P34972); experiment: Radioligand displacement assay on CB2 receptor; format: binding; design: purchased Perkin Elmer RBXCB2M
T1 sequence (P34972 whole entry): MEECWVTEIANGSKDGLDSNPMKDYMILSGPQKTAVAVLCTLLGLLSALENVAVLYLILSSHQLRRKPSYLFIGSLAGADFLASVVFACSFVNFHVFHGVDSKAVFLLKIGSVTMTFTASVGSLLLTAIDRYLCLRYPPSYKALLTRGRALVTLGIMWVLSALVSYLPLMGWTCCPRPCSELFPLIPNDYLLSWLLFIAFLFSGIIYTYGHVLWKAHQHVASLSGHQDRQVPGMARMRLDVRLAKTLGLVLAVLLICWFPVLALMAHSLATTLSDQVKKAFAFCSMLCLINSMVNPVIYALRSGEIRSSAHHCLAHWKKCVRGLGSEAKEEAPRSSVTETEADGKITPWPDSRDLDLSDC
Experimental: (§1) For the CB1 receptor, binding experiments were performed in the presence of 0.39 nM of the radioligand [^3H]CP55,940 (168 Ci/mmol) (Perkin Elmer, Waltham, MA, US) at 30°C in siliconized glass vials together with 7.16 µg of membrane recombinantly over-expressing CB1 (No. RBHCB1M, Perkin Elmer, Waltham, MA, US), which was resuspended in 0.2 mL (final volume) binding-buffer (50 mM TRIS-HCl, 2.5 mM EGTA, 5 mM MgCl2, 0.5 mg/mL fatty acid free BSA, pH 7.4). Test compounds were present at varying concentrations and the nonspecific binding of the radioligand was determined in the presence of 10 µM CP55,940 (Tocris Cookson Ltd., Bristol, UK). After 1.5 h incubation, the suspension was rapidly filtered through 0.05% polyethylenimine pre-soaked GF/C glass fiber filters on a 96-well cell harvester and washed nine times with 0.5 mL ice-cold washing-buffer (50 mM TRIS-HCl, 2.5 mM EGTA, 5 mM MgCl2, 2% BSA, pH 7.4). Radioactivity on filters was measured with a Beckman LS 6500 scintillation counter in 3 mL Ultima Gold scintillation liquid (Perkin Elmer, Waltham, MA, US). Data collected from three independent experiments performed in triplicates were normalized between 100% and 0% specific binding for [^3H]CP55,940. […] Derived from the dissociation constant (KD) of [^3H]CP55,940 and the concentration-dependent displacement (IC50 value), inhibition constants (Ki) of competitor compounds were calculated using the Cheng-Prusoff equation [Ki = IC50/(1+ L/KD)].
For CB2-receptor binding studies 3.8 µg of membrane recombinantly over-expressing CB2 (No. RBXCB2M, Perkin Elmer, Waltham, MA, US) were resuspended in 0.6 mL binding buffer (see above) together with 0.11 nM of the radioligand [^3H]CP55,940. The CB2-binding assay was conducted in the same manner as for CB1.

CB1 [6] = biological target: T2, CB1 (Homo sapiens, UniProt P21554); experiment: Radioligand displacement assay on CB1 receptor; format: binding
T2 construct: purchased Perkin Elmer RBHCB1M
T2 sequence (P21554 whole entry): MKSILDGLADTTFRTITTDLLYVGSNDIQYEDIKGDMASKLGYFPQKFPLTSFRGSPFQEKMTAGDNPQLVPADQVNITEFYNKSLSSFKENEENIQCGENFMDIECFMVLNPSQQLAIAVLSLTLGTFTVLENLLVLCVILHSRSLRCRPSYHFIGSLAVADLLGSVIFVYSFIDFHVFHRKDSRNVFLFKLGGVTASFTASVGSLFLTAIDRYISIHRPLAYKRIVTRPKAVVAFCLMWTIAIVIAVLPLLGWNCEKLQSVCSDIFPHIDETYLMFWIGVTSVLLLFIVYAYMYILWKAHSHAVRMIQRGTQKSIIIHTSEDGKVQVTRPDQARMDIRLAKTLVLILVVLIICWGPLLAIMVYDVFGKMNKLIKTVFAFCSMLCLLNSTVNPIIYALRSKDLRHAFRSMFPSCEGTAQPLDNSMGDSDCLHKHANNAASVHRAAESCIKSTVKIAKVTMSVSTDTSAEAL
Experimental: as §1

PGE2 production = settings: at 50 µM; LaLone 2007; cited from earlier work
CB2 [7] = biological target: T1, CB2; settings: read-out: affinity towards CB2 receptors, Ki; Gertsch, Planta Med. 2008; cited from earlier work
CB2 receptors = settings: Woelkart, Planta Med. 2005; cited from earlier work
[8] = Critical micelle concentration (CMC) measurement, dye micellization; format: physicochemical; settings: fluorescein dye micellization in water, pH 6.9, room temperature
Experimental: Dye micellization was carried out with a modified version of the method described by Eliyahu et al., Novel dextran-spermine conjugates as transfecting agents: comparing water-soluble and micellar polymers. […] Experiments were carried out on 96-well microtiter plates (excitation at 485 nm, emission at 535 nm). Since the emission of fluorescein is pH-dependent, the pH of the mixture was kept constant at 6.9. The CMC range was determined as the concentration range where the first statistically significant increase in fluorescence was detected.

CB1 [9] = biological target: CB1 (Rattus norvegicus, UniProt P20272); settings: Woelkart, Planta Med. 2005; cited from earlier work
Chain of CB1 (Rattus norvegicus, UniProt P20272) (P20272 whole entry): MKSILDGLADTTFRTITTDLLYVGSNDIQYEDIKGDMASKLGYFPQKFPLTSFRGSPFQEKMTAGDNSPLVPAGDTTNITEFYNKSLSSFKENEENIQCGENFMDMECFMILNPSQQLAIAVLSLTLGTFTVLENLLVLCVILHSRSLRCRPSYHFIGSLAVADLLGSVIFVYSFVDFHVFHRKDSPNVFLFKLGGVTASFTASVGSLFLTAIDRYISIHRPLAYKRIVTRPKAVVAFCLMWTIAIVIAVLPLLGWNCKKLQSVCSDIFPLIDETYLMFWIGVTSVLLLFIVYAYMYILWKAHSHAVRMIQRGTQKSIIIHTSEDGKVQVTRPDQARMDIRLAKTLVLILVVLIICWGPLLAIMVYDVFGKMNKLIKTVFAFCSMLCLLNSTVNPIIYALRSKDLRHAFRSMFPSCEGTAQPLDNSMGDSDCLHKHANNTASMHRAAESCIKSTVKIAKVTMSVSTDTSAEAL

FAAH [10] = biological target: T3, FAAH (Sus scrofa, UniProt Q9TUI8); experiment: Fatty acid amide hydrolase (FAAH) inhibition, pig brain homogenate (assay D); format: biochemical; settings: 1 µM; pig brain homogenate (assay D)
T3 construct: 165 µl of diluted pig brain homogenate; from tissue; host or cells: pig brain homogenate
T3 sequence (Q9TUI8 1-579): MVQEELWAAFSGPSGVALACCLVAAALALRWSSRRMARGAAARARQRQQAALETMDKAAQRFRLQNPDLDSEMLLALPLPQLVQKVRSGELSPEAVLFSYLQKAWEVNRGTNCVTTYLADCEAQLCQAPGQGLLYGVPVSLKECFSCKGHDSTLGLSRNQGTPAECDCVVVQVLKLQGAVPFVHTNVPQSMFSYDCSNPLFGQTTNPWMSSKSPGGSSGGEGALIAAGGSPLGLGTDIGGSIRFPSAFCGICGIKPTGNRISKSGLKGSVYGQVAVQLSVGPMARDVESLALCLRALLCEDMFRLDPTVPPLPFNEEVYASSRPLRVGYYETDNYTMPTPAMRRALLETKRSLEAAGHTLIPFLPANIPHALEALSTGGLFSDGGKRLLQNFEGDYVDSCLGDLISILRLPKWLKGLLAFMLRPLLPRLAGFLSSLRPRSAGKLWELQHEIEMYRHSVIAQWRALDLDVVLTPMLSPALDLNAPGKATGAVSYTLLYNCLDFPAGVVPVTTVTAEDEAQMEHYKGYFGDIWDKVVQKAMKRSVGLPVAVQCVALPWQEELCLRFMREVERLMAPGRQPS
Experimental: FAAH activity was assessed using pig brain homogenate according to the method described by Omeir et al., Arachidonoyl ethanolamide-[1,2-14C] as a substrate for anandamide amidase. Life Sci. 1995;56(23-24):1999-2005, and adapted by Fowler et al., Ibuprofen inhibits rat brain deamidation of anandamide at pharmacologically relevant concentrations. Mode of inhibition and structure-activity relationship. J Pharmacol Exp Ther. 1997 Nov;283(2):729-34. Briefly, 10 µl of test compounds at the adequate concentration or solvent were incubated at 37°C for 20 min with 165 µl of diluted pig brain homogenate in 10 mM Tris-HCl and 1 mM EDTA, pH 7.6 (corresponding to 100 µg/ml of total protein), 1% w/v fatty acid free BSA (Sigma, San Louis, MO, US) and 25 µl of a mixture 1:1 of nonradioactive AEA [^3H]-AEA (60 Ci mmol^-1) (concentration in the assay was 2 µM). Successively, 400 µl of a mixture 1:1 (v/v) of methanol:chloroform was added at each sample and, after vigorous vortexing, aqueous and organic phases were separated by centrifugation at 10000 rpm for 10 min. The radioactivity associated to the [^3H]-ethanolamine (produced by FAAH-catalysed breakdown of [^3H]-AEA) was measured upon addition of 3 ml of Ultima Gold scintillation liquid (Perkin Elmer, Waltham, MA, US) to 200 µl of the aqueous (upper) phase, using a Beckman LS6500 scintillation counter. Results were expressed as % of FAAH activity vs. pig brain homogenate treated only with solvent.

## CCCCCCC/C=C/C=C/C(=O)NCC(C)C [Compound A, (2E,4E)-N-isobutyldodeca-2,4-diene amide]
FAAH [1]; Gertsch, Planta Med. 2008
  inhibition of FAAH: did not inhibit
FAAH [1]; Woelkart, Planta Med. 2005
  inhibition of FAAH: very weak inhibitor
[2]
  EC50: > 10000 nM
[3]
  cell death: 50%
[4]
  cytotoxicity: No significant cytotoxicity
CB2 [5]; displacement of 0.11 nM [3H]CP55,940, membrane recombinantly over-expressing CB2, read-out: Receptor affinity Ki CB2
  Ki: 60 ± 7 nM
CB2 [5]; summary of Table 3
  affinity towards CB2 (in words): high affinity
CB1 [6]; displacement of 0.39 nM [3H]CP55,940, membrane recombinantly over-expressing CB1, read-out: Receptor affinity Ki CB1
  Ki: 1940 ± 213 nM
CB1 [6]; summary of Table 3
  affinity towards CB1 (in words): moderate affinity
PGE2 production
  PGE2 production: inhibiting
CB2 [7]
  Ki: < 100 nM
CB2 receptors
  affinity to CB2 receptor: single digit micromolar range
[8]
  CMC: <0.5 µM
CB1 [9]
  affinity to CB1 receptor: single digit micromolar range
FAAH [10]
  FAAH inhibition at 1 µM: <10 % of control
